Results taken from patent US5989875A, “Method of process for producing L-lysine by fermentation” (priority 1995, dated 1999).
≈ marks a conversion by molar mass, not a printed value.

What was measured:
Type in all cases: cell-based, E. coli
[1] = tested on: GT3/pLYSC1 strain; assay: Growth of GT3/pLYSC1 on M9 media containing L-lysine or AEC; details: for Growth of GT3/pLYSC1: M9 agar
Description: (§1) A transformed strain obtained by introducing pLYSC1 into the AK completely deficient strain, E. coli GT3 was designated as GT3/pLYSC1, and a transformed strain obtained by introducing pLYSC2 into the E. coli GT3 was designated as GT3/pLYSC2. A considerable amount of L-lysine was added to the minimal medium M9, and the GT3/pLYSC1 strain and the GT3/pLYSC2 strain were each cultivated. Both of the GT3/pLYSC1 strain and the GT3/pLYSC2 strain harbor plasmids containing the wild type lysC, in which AKIII encoded by lysC on the plasmids is a sole AK. The wild type AKIII as the sole AK is inhibited by L-lysine in the presence of a considerable amount of L-lysine.
(§2) The GT3/pLYSC1 strain and the GT3/pLYSC2 strain were cultivated on M9 agar plate media containing various concentrations of L-lysine or AEC, respectively. Growth inhibitory concentrations by L-lysine and AEC were examined, and a selection condition was investigated for a strain harboring a plasmid containing lysC*.
(§3) In this table, + indicates growth of transformant, ± indicates a little growth, and - indicates no growth.

[2] = tested on: W3110/pdapA1 strain; assay: Growth of W3110/pdapA1 on M9 media containing AEC
Description: (§4) A transformed strain obtained by introducing pdapA1 into a wild type E. coli W3110 strain (available from National Institute of Genetics (Mishima-shi, Shizuoka-ken, Japan)) was designated as W3110/pdapA1, and a transformed strain obtained by introducing pdapA2 into the E. coli W3110 strain was designated as W3110/pdapA2, respectively. These two transformed strains were cultivated respectively in a minimal medium M9 having the following composition to which AEC as an analog of lysine was added. The W3110 strain with no introduced plasmid was also cultivated in the same medium as a control.
(§5) The W3110/pdapA1 strain and the W3110/pdapA2 strain obtained as described above were cultivated on M9 agar plate media containing various concentrations of AEC, respectively. Growth inhibitory concentrations by AEC were examined, and a selection condition was investigated for a strain harboring a plasmid containing dapA*.
(§6) In this table, + indicates growth of transformant, and - indicates no growth.

[3] = tested on: W3110 strain; assay: Growth of W3110 strain with no plasmid in minimal medium M9 with AEC; details: W3110 strain having no plasmid
Description: as §4

[4] = tested on: GT3/pLYSC2 strain; assay: Growth of GT3/pLYSC2 on M9 media containing L-lysine or AEC; details: M9 agar
Description: as §1, §2, §3

[5] = tested on: W3110/pdapA2 strain; assay: Growth of W3110/pdapA2 on M9 media containing AEC; details: for Growth of W3110/pdapA2: M9 agar
Description: as §4, §5, §6

NCCSC[C@H](N)C(=O)O [AEC, S-2-aminoethylcysteine]
MIC ([1]; Escherichia coli, GT3, read-out: Allotment of addition in which growth was completely suppressed): 0.2 mM (≈ 32.8 µg/mL) | Growth of GT3/pLYSC1 ([1]; AEC 0.2 mM): - | Growth of GT3/pLYSC1 ([1]; AEC 0.4 mM): - | Growth of GT3/pLYSC1 ([1]; AEC 0.8 mM): - | Growth of GT3/pLYSC1 ([1]; AEC 1.5 mM): - | Growth of GT3/pLYSC1 ([1]; AEC 3 mM): - | Growth of GT3/pLYSC1 ([1]; AEC 6 mM): - | Growth of GT3/pLYSC1 ([1]; AEC 12 mM): - | Growth of GT3/pLYSC1 ([1]; AEC 25 mM): - | Growth of GT3/pLYSC1 ([1]; AEC 50 mM): - | MIC ([2]; Escherichia coli, W3110/pdapA1 strain, M9 agar, read-out: Allotment of addition in which growth was suppressed): 30 mM (≈ 4930 µg/mL) | Growth of W3110/pdapA1 ([2]; M9 agar, AEC 2 mM): + | Growth of W3110/pdapA1 ([2]; M9 agar, AEC 4 mM): + | Growth of W3110/pdapA1 ([2]; M9 agar, AEC 8 mM): + | Growth of W3110/pdapA1 ([2]; M9 agar, AEC 15 mM): + | Growth of W3110/pdapA1 ([2]; M9 agar, AEC 30 mM): - | Growth of W3110/pdapA1 ([2]; M9 agar, AEC 60 mM): - | Growth of W3110/pdapA1 ([2]; M9 agar, AEC 125 mM): - | Growth of W3110/pdapA1 ([2]; M9 agar, AEC 250 mM): - | Growth in minimal medium M9 to which AEC was added ([2]; W3110/pdapA1): suppressed in growth | Growth in minimal medium M9 to which AEC was added [3]: suppressed in growth | Allotment of addition up to which growth was not suppressed ([4]; GT3/pLYSC2 strain): 3 mM | Growth of GT3/pLYSC2 ([4]; AEC 0.2 mM): ± | Growth of GT3/pLYSC2 ([4]; AEC 0.4 mM): ± | Growth of GT3/pLYSC2 ([4]; AEC 0.8 mM): ± | Growth of GT3/pLYSC2 ([4]; AEC 1.5 mM): ± | Growth of GT3/pLYSC2 ([4]; AEC 3 mM): ± | Growth of GT3/pLYSC2 ([4]; AEC 6 mM): - | Growth of GT3/pLYSC2 ([4]; AEC 12 mM): - | Growth of GT3/pLYSC2 ([4]; AEC 25 mM): - | Growth of GT3/pLYSC2 ([4]; AEC 50 mM): - | MIC ([5]; Escherichia coli, read-out: Allotment of addition in which growth was suppressed): 15 mM (≈ 2460 µg/mL) | Growth of W3110/pdapA2 ([5]; AEC 2 mM): + | Growth of W3110/pdapA2 ([5]; AEC 4 mM): + | Growth of W3110/pdapA2 ([5]; AEC 8 mM): + | Growth of W3110/pdapA2 ([5]; AEC 15 mM): - | Growth of W3110/pdapA2 ([5]; AEC 30 mM): - | Growth of W3110/pdapA2 ([5]; AEC 60 mM): - | Growth of W3110/pdapA2 ([5]; AEC 125 mM): - | Growth of W3110/pdapA2 ([5]; AEC 250 mM): - | Growth in minimal medium M9 to which AEC was added ([5]; W3110/pdapA2): suppressed in growth
